“Also recorded” adds a separate entry of the source.
Key:
healthy male volunteers [1] = test: Area of dynamic mechanical hyperalgesia after intradermal capsaicin (cotton wool stroking); assay type: in vivo, human; conditions: single oral dose (clobazam 20 mg, clonazepam 1 mg, tolterodine 1 mg), mean (SD)
Procedure: The area of dynamic mechanical hyperalgesia was determined by gently stroking a hand-held cotton wool tip on a 1 cm strip of the skin, at a rate of approximately 1 cm/s. Subjects were asked to report when the sensation changed from a non-painful to a painful sensation. The borders of dynamic hyperalgesia were delineated similarly to the determination of static hyperalgesia.

healthy male volunteers [2] = test: Pressure pain detection and tolerance thresholds (pressure algometer, 2nd toe); assay type: in vivo, human; conditions: mean (SD)
Procedure: Pain detection and tolerance thresholds were measured with an electronic pressure algometer (Somedic, Hörby, Sweden) applied at the center of the pulp of the 2nd toe. […] The pressure was increased from 0 at a rate of 30 kPa/s to a maximum pressure of 1200 kPa. Pain detection threshold was defined as the point at which the pressure sensation turned to pain. Pain tolerance threshold was defined as the point at which the subject felt the pain as intolerable. If the threshold was not reached at 1200 kPa, this value was considered as threshold. Three assessments were made and the mean of these 3 measurements were used for the data analysis.

healthy male volunteers [3] = test: Area of static hyperalgesia after intradermal capsaicin injection (512 mN von Frey hair); assay type: in vivo, human; conditions: for Area of static hyperalgesia: single oral dose (clobazam 20 mg, clonazepam 1 mg, tolterodine 1 mg), mean (SD)
Description: Intradermal injection of capsaicin causes a brief stinging/burning pain at the injection site followed by development of secondary hyperalgesia, i.e. hyperalgesia detected at surrounding (not injected) skin [15], [16]. Secondary hyperalgesia after intradermal capsaicin is the result of sensitization of the central nervous system, which is one of the most relevant aspects of neuroplastic changes. This model was sensitive to the action of GABAergic compounds in animal studies.
The capsaicin solution was prepared by the Hospital Pharmacy and underwent sterile filtration into sterile septum-sealed vials. The sterile solution (1 mg/ml) was placed into sterile syringes and used for intradermal injection at room temperature. The skin temperature was measured using a digital thermometer, and was 32°C+/−1 in all subjects.
Subjects remained semi-supine during the experiment. Before capsaicin injection, the skin of the forearm was cleaned using an antiseptic wipe and allowed to air dry. The injection site was marked midway between the elbow and the wrist. Using a surgical skin marker, 4 lines were drawn through the injection site, so that they intersected the corners of a regular octagon (figure 2). These lines were marked every 0.5 cm from the center to the edges using a predefined grid. […] We determined the area of hyperalgesia by adding the areas of each triangle in which hyperalgesia was recorded.
Using a 1-ml tuberculin syringe fitted with a 27-gauge disposable needle, 100 µl capsaicin were injected […] into the skin, at the intersection of the 4 vectors previously drawn. A white skin elevation appeared during injection ensuring correct injection.
Static mechanical hyperalgesia was judged to be present when the subjects reported that applying a 512 mN von Frey Hair, 5 and 30 minutes after capsaicin injection, elicited pain with an intensity of at least 4 using a numerical rating scale (NRS, whereby 0 = no pain and 10 = worst pain). Only these subjects were included in the study. In order to document pain induction, the subject recorded pain intensity at injection and 5 minutes post-injection using a 10 cm visual analogue pain scale (VAS), whereby 0 = no pain and 10 = worst pain imaginable.
The area of secondary hyperalgesia was assessed using a calibrated 512 mN von Frey hair. The punctuated probe was moved along the 8 radial lines defined above, starting approximately 6 cm away from the site of injection, at each mark in steps of 0.5 cm. The weighted von Frey hair was placed gently on the skin and the load was applied for 2 seconds. The volunteers were asked to report when the pricking sensation changed to a pain sensation. At least 4 seconds elapsed between consecutive stimuli. This procedure was repeated for each vector. The number corresponding to the marker at which sensation changes as described above was noted and the individual numbers were used to calculate the area of hyperalgesia.
The flow of the experiment is illustrated in figure 3. After training, basal values for the pain tests were determined. The study medication was given immediately after the intradermal injection of capsaicin. Thus, basal values were recorded for all tests, except for those related to capsaicin injection. Because of the relatively short duration of hyperalgesia induced by capsaicin, the recordings of basal values before drug administration would yield a too short testing procedure.

healthy male volunteers [4] = test: Cutaneous repeated (20 stimuli) electrical stimulation, VAS; assay type: in vivo, human; set-up: AUC of VAS during 20 cutaneous electrical stimuli: unit not given beside the values; conditions: mean (SD); for Maximal VAS during 20 cutaneous electrical stimuli: VAS 0-10
Procedure: The stimulus burst used for single stimulus was repeated for a train of 20 pulses at 2 Hz, at an intensity corresponding to the temporal summation threshold. During this 10 s stimulation, pain intensity was continuously rated by the subject with an electronic VAS, and the area under the curve (AUC) was computed. Additionally, the maximal VAS during stimulation was recorded.

patients / volunteers = conditions: ref Micromedex 2009; cited from earlier work
[5] = baseline before medication, per drug session
[6] = single oral dose (clobazam 20 mg, clonazepam 1 mg, tolterodine 1 mg), 120 min after medication
[7] = single oral dose (clobazam 20 mg, clonazepam 1 mg, tolterodine 1 mg), after flumazenil 0.2 mg iv
[8] = single oral dose (clobazam 20 mg, clonazepam 1 mg, tolterodine 1 mg), 30 min after medication
[9] = single oral dose (clobazam 20 mg, clonazepam 1 mg, tolterodine 1 mg), 60 min after medication
[10] = single oral dose (clobazam 20 mg, clonazepam 1 mg, tolterodine 1 mg), 90 min after medication

Cc1ccc(O)c([C@H](CCN(C(C)C)C(C)C)c2ccccc2)c1 [Tolterodine]
Area of dynamic hyperalgesia (healthy male volunteers [1]; 30 min after medication): 20.3 (11.6) cm^2
Area of dynamic hyperalgesia (healthy male volunteers [1]; 60 min after medication): 23.3 (09.0) cm^2
Area of dynamic hyperalgesia (healthy male volunteers [1]; 90 min after medication): 23.1 (11.3) cm^2
Area of dynamic hyperalgesia (healthy male volunteers [1]; 120 min after medication): 23.3 (09.1) cm^2
Area of dynamic hyperalgesia (healthy male volunteers [1]; after flumazenil 0.2 mg iv): 24.7 (14.6) cm^2
Pressure pain detection threshold (healthy male volunteers [2]; [5]): 403 (118) kPa
Pressure pain tolerance threshold (healthy male volunteers [2]; [5]): 674 (221) kPa
Pressure pain detection threshold (healthy male volunteers [2]; [6]): 371 (88) kPa
Pressure pain detection threshold (healthy male volunteers [2]; [7]): 382 (118) kPa
Pressure pain tolerance threshold (healthy male volunteers [2]; [7]): 685.0 (203) kPa
Change in the area of static hyperalgesia over time (healthy male volunteers [3]; main analysis, pairwise multiple comparisons within each drug): significantly increased; also recorded: Significant increase in the area of hyperalgesia only for tolterodine
Area of static hyperalgesia (healthy male volunteers [3]; 30 min after medication): 36.3 (10.6) cm^2
Area of static hyperalgesia (healthy male volunteers [3]; 60 min after medication): 40.6 (11.5) cm^2
Area of static hyperalgesia (healthy male volunteers [3]; 90 min after medication): 43.8 (11.9) cm^2
Area of static hyperalgesia (healthy male volunteers [3]; 120 min after medication): 44.7 (10.9) cm^2
Area of static hyperalgesia (healthy male volunteers [3]; after flumazenil 0.2 mg iv): 47.6 (13.7) cm^2
Maximal VAS during 20 cutaneous electrical stimuli (healthy male volunteers [4]; [5]): 4.7 (1.5)
Maximal VAS during 20 cutaneous electrical stimuli (healthy male volunteers [4]; [8]): 5.1 (1.6)
Maximal VAS during 20 cutaneous electrical stimuli (healthy male volunteers [4]; [9]): 4.8 (1.8)
Maximal VAS during 20 cutaneous electrical stimuli (healthy male volunteers [4]; [10]): 4.9 (1.8)
Maximal VAS during 20 cutaneous electrical stimuli (healthy male volunteers [4]; [6]): 4.6 (1.8)
Maximal VAS during 20 cutaneous electrical stimuli (healthy male volunteers [4]; [7]): 4.7 (1.6)
AUC of VAS during 20 cutaneous electrical stimuli (healthy male volunteers [4]; [5]): 379 (155)
AUC of VAS during 20 cutaneous electrical stimuli (healthy male volunteers [4]; [8]): 382 (134)
AUC of VAS during 20 cutaneous electrical stimuli (healthy male volunteers [4]; [9]): 362 (155)
AUC of VAS during 20 cutaneous electrical stimuli (healthy male volunteers [4]; [10]): 336 (143)
AUC of VAS during 20 cutaneous electrical stimuli (healthy male volunteers [4]; [6]): 328 (144)
AUC of VAS during 20 cutaneous electrical stimuli (healthy male volunteers [4]; [7]): 326 (136)
Dizziness, expected side effect frequency (patients / volunteers): 2%
Somnolence, expected side effect frequency (patients / volunteers): 3%
